“And” between values parts separate entries of the source, which are not always exact repeats. Equal values may be shown once.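 Each compound was tested at five concentrations against cells in 96-well plates for 48 hours. GI50 marks 50% less growth. Definition used: TGI = concentration required for complete inhibition of growth.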
What was measured:
Experiment in all cases: NCI tumour cell line growth inhibition, 48 h
[1] = system: 786-0 renal
[2] = system: A498 renal
[3] = system: DLD-1 colon
[4] = system: DMS 273 small cell lung
[5] = system: DU-145 prostate
[6] = system: HOP-62 NSCLC
[7] = system: HOP-92 NSCLC
[8] = system: K-562 leukemia
[9] = system: LOX IMVI melanoma
[10] = system: NCI-H522 lung
[11] = system: P388 leukemia
[12] = system: SK-MEL-2 melanoma
[13] = system: SNB-78 CNS
[14] = system: SW-620 colon
[15] = system: TK-10 renal
[16] = system: U251 CNS
[17] = system: UACC-257 melanoma

With `CCOC(=O)C(CC(C)C)NC(=O)C(Cc1ccc(N(CCCl)CCCl)cc1)NC(C)=O` (stereo not drawn) the GI50 [1] was 4.11 µM, the TGI [1] was 16.6 µM and 8.47 µM and the GI50 [2] was 18.4 µM. The TGI [2] was 37 µM and 48.4 µM, the GI50 [3] was 5.4 µM and 8.64 µM and the TGI [3] was 21.1 µM and 31.3 µM. The TGI [4] was 20.1 µM and 24.9 µM, the TGI [5] was 21.9 µM and the GI50 [6] was 6.09 µM. The TGI [6] was 23.1 µM and 14.2 µM, the GI50 [7] was 1250 nM and the TGI [7] was 3750 nM and 1400 nM. The GI50 [8] was 11.6 µM, the TGI [8] was 49.7 µM and 54.6 µM and the GI50 [9] was 3.34 µM. The TGI [9] was 15.1 µM and 12.5 µM, the GI50 [10] was 2520 nM and the TGI [10] was 8.68 µM and 3.87 µM. For the same compound, the TGI [11] was 10.6 µM, the GI50 [12] was 1810 nM and the TGI [12] was 4.74 µM and 5.49 µM. The TGI [13] was 16.6 µM and 17.8 µM, the GI50 [14] was 11.3 µM and the TGI [14] was 28.7 µM and 33.4 µM. For the same compound, the TGI [15] was 30.2 µM and 32.2 µM, the GI50 [16] was 10.2 µM and the TGI [16] was 26.2 µM and 27 µM. For the same compound, the TGI [17] was 14 µM and 13.1 µM.
